Values joined by “and” are separate entries in the source; they are usually repeats but may differ in a detail not shown here. Equal values may be shown once. Read-outs that look alike come from different tables or passages of the source.
Columns and labels:
[1] = In vitro skin flux, hydroalcoholic gels (liquid reservoir), finite occluded dose, modified Franz diffusion cells; type: in vitro ADME, human; conditions: for Average Daily Flux of CP-336,156 over 7 Days: Example 3 gel EtOH/H2O/Gly/GMO/ML 50/15/30/2.5/2.5% v/v, CP-336,156 tartrate salt 2 mg/ml; for Average Daily Flux of CP-336,156 over 6 Days: Example 4 gel EtOH/H2O/Gly/GMO/LA 30/38/30/1/1% v/v (two-phase dispersion); for Average Daily Flux of CP-336,156 over 6 Days / Average Daily flux over 7 Days, Unenhanced 0% GMO / Average Daily flux over 7 Days, 0.03% GMO / Average Daily flux over 7 Days, 0.06% GMO / Average Daily flux over 7 Days, 0.12% GMO: CP-336,156 tartrate salt 6 mg/ml; for Average Daily flux over 7 Days, Unenhanced 0% GMO: Example 5 gel EtOH/IPA/H2O/Gly 26.25/8.75/35/30% v/v; for Average Daily flux over 7 Days, 0.03% GMO / Average Daily flux over 7 Days, 0.06% GMO / Average Daily flux over 7 Days, 0.12% GMO: Example 5 gel EtOH/IPA/H2O/Gly; for Average Daily flux over 7 Days, 0.03% GMO: 0.03% v/v glycerol monooleate; for Average Daily flux over 7 Days, 0.06% GMO: 0.06% v/v glycerol monooleate; for Average Daily flux over 7 Days, 0.12% GMO: 0.12% v/v glycerol monooleate (cloudy dispersion); for E = Enhancement Factor = Average Daily Flux from Enhanced Formulation/Average Daily Flux from Unenhanced Control: Example 5 gel
Description: Hydroalcoholic gels were prepared on a 10 ml scale as follows. Ethyl alcohol (190 proof ethanol), water, glycerin, enhancer and drug were combined in the appropriate proportions and mixed for several hours. The gelling agent (hydroxypropylcellulose) was added and the solution was mixed briefly at high shear, then mixed at low shear until a gel was formed.
(§1) In vitro skin flux studies were conducted using human cadaver epidermal membrane in modified Franz non-jacketed diffusion cells. The epidermal membrane (stratum corneum and epidermis) was separated from whole skin (epidermal membrane and dermis) by the method of Kligman and Christopher (Arch. Dermatol. 88:702 (1963)). This method involves the exposure of the full-thickness skin to water at 60.degree C. for a time period of 60 seconds. After this period, the epidermal membrane was gently peeled off the dermis and stored for later use in aluminum foil at −5° C.
Permeation experiments with hydroalcoholic gels were performed using finite occluded doses. The occluded dose is an appropriate in vitro model for the application of a transdermal patch drug delivery system containing a liquid or gel reservoir.
Occluded dosing experiments were set-up according to the following procedure. Prior to skin permeation experiments, the epidermal membrane was cut to an appropriate size and placed between the two halves of the diffusion cell with the epidermal side facing the receiver compartment. The receiver compartment was filled with an appropriate solution then the diffusion cell was placed in a circulating water bath calibrated to maintain the temperature of the skin surface at 32° C. and allowed to hydrate overnight. After hydration, a sample of the gel (75 µl) was pipetted into a cavity created by placing a polyethylene washer over the stratum corneum surface. This cavity was covered with an occlusive backing film which was clamped in place.
(§2) The following sampling procedure was used for all dosage forms. At predetermined sampling time points, the entire contents of the receiver compartment were collected for drug quantitation and the receiver compartment was filled with fresh solution, taking care to eliminate any air bubbles at the skin/solution interface. […]

[2] = female and male rats; cited from earlier work
[3] = In vitro skin flux, adhesive matrix systems, modified Franz diffusion cells; type: in vitro ADME, human; conditions: for Average Daily Flux of CP-336,156 over 7 Days: Example 1 matrix TSR 58 adhesive/triacetin/CP-336,156 84/10/6% w/w; for Cumulative Permeation of CP-336,156 over 24 Hours, Enhanced 1.5% w/w NaLG: Example 2 matrix Morstik 214, 3% w/w CP-336,156 tartrate salt + 1.5% w/w sodium lauroyl glycolate; for Cumulative Permeation of CP-336,156 over 24 Hours, Unenhanced: Example 2 matrix Morstik 214 water-based adhesive, 3% w/w CP-336,156 tartrate salt, no enhancer; for Enhancement Factor Q24 enhanced/Q24 unenhanced: Example 2 matrix, 1.5% w/w NaLG vs unenhanced
Description: Pressure sensitive adhesive matrix systems prepared according to the teachings of U.S. Pat. No. 5,952,000, incorporated herein by reference. First, the solids content of the adhesive solution (water or organic solvent based) was determined by placing a known weight of solution in a weighed aluminum dish and evaporating the solvents overnight in a 70. degree. C. convection oven. The solid adhesive content of the solution was calculated by dividing the adhesive solid weight after drying by the initial total solution weight. Next, a weighed quantity of adhesive solution was added to a glass bottle and the drug substance, permeation enhancer, and other excipients were weighed and added to the adhesive solution in a quantity necessary to achieve the desired dry matrix film composition. The solution containing the adhesive polymer, drug substance, and other excipients as necessary was then mixed overnight. After mixing, approximately 8 ml of the solution was dispensed on a silanized polyester release liner and film cast using a casting knife with a gap size appropriate to achieve a final dried thickness of approximately 0.05 mm. The cast film was dried in a 70° C. convection oven until all solvents had evaporated to yield a dried matrix (15 minutes for organic solvent based adhesives, 30 minutes for water emulsion based adhesives). Finally, an 0.08 mm thick occlusive polyethylene backing film was laminated onto the dried adhesive matrix, and these systems were then used to conduct in vitro skin flux experiments as described below.
as §1
Prior to each permeation experiment with a matrix system, the matrix system was cut into a circular sample of 0.7 cm^2 area and the silanized release liner was removed. The adhesive was affixed to the stratum corneum side of the thawed epidermal membrane which was then cut to an appropriate size and clamped in place between the two halves of the diffusion cell with the stratum corneum facing the donor compartment. The receiver compartment was filled with water or an aqueous solution appropriate to maintain sink conditions for the drug. All receiver solutions included 0.02% (w/w) sodium azide (NaN3) to inhibit bacterial growth. The diffusion cell was placed in a temperature controlled circulating water bath calibrated to maintain the surface temperature of the skin at 32° C. The receiver compartment was constantly stirred by a magnetic stir-bar in the receiver compartment agitated by a magnetic stirring module placed under the water bath.
as §2

[4] = postmenopausal women; cited from earlier work
[5] = ovariectomized rats; cited from earlier work
[6] = compared with estradiol therapy; cited from earlier work
[7] = male rats; cited from earlier work
[8] = second skin source (name not given), 5 cells
[9] = third skin source (name not given), 5 cells

## Oc1ccc2c(c1)CC[C@H](c1ccccc1)[C@@H]2c1ccc(OCCN2CCCC2)cc1 [CP-336,156, lasofoxifene]
[1]; All Skins, Mean ± SEM
  Average Daily Flux of CP-336,156 over 7 Days: 21.6 ± 2.3 ug/cm^2/day
  Average Daily Flux of CP-336,156 over 6 Days: 38.3 ± 3.3 ug/cm^2/day
[1]; Skin 3A, 8 cells
  Average Daily Flux of CP-336,156 over 7 Days: 174 ± 7.7 ug/cm^2/day
[1]; Skin 3B, 4 cells
  Average Daily Flux of CP-336,156 over 7 Days: 15.3 ± 8.7 ug/cm^2/day
[1]; Skin 3C, 8 cells
  Average Daily Flux of CP-336,156 over 7 Days: 23.9 ± 11.0 ug/cm^2/day
[1]; Skin 3D, 4 cells
  Average Daily Flux of CP-336,156 over 7 Days: 27.9 ± 2.2 ug/cm^2/day
[1]; Skin 3E, 4 cells
  Average Daily Flux of CP-336,156 over 7 Days: 21.2 ± 9.9 ug/cm^2/day
[1]; Skin 3F, 4 cells
  Average Daily Flux of CP-336,156 over 7 Days: 15.4 ± 7.2 ug/cm^2/day
[1]; Skin 3G, 4 cells
  Average Daily Flux of CP-336,156 over 7 Days: 30.3 ± 4.9 ug/cm^2/day
[1]; Skin 4A, 5 cells
  Average Daily Flux of CP-336,156 over 6 Days: 42.4 ± 15.5 ug/cm^2/day
[1]; Skin 4B, 5 cells
  Average Daily Flux of CP-336,156 over 6 Days: 36.3 ± 5.2 ug/cm^2/day
[1]; Skin 4C, 5 cells
  Average Daily Flux of CP-336,156 over 6 Days: 36.2 ± 14.9 ug/cm^2/day
[1]; All Skins
  Average Daily flux over 7 Days, Unenhanced 0% GMO: 11.8 ug/cm^2/24 h
  Average Daily flux over 7 Days, 0.03% GMO: 33.0 ug/cm^2/24 h
  Average Daily flux over 7 Days, 0.06% GMO: 35.6 ug/cm^2/24 h
  Average Daily flux over 7 Days, 0.12% GMO: 41.8 Ug/cm^2/24 h
[1]; Skin 5A, n = 2-5 cells
  Average Daily flux over 7 Days, Unenhanced 0% GMO: 6.4 ug/cm^2/24 h
  Average Daily flux over 7 Days, 0.03% GMO: 7.1 ug/cm^2/24 h
  Average Daily flux over 7 Days, 0.06% GMO: 11.6 ug/cm^2/24 h
  Average Daily flux over 7 Days, 0.12% GMO: 16.8 Ug/cm^2/24 h
[1]; Skin 5B, n = 2-5 cells
  Average Daily flux over 7 Days, Unenhanced 0% GMO: 17.4 ug/cm^2/24 h
  Average Daily flux over 7 Days, 0.03% GMO: 69.5 ug/cm^2/24 h
  Average Daily flux over 7 Days, 0.06% GMO: 74.9 ug/cm^2/24 h
  Average Daily flux over 7 Days, 0.12% GMO: 85.2 Ug/cm^2/24 h
[1]; Skin 5C, n = 2-5 cells
  Average Daily flux over 7 Days, Unenhanced 0% GMO: 11.6 ug/cm^2/24 h
  Average Daily flux over 7 Days, 0.03% GMO: 22.4 ug/cm^2/24 h
  Average Daily flux over 7 Days, 0.06% GMO: 20.3 ug/cm^2/24 h
  Average Daily flux over 7 Days, 0.12% GMO: 23.6 Ug/cm^2/24 h
[1]; 0.03% GMO vs 0% GMO, All Skins
  E = Enhancement Factor = Average Daily Flux from Enhanced Formulation/Average Daily Flux from Unenhanced Control: 2.34 ± 0.37
[1]; 0.03% GMO vs 0% GMO, Skin 5A
  E = Enhancement Factor = Average Daily Flux from Enhanced Formulation/Average Daily Flux from Unenhanced Control: 1.12
[1]; 0.03% GMO vs 0% GMO, Skin 5B
  E = Enhancement Factor = Average Daily Flux from Enhanced Formulation/Average Daily Flux from Unenhanced Control: 3.99
[1]; 0.03% GMO vs 0% GMO, Skin 5C
  E = Enhancement Factor = Average Daily Flux from Enhanced Formulation/Average Daily Flux from Unenhanced Control: 1.93
[1]; 0.06% GMO vs 0% GMO, All Skins
  E = Enhancement Factor = Average Daily Flux from Enhanced Formulation/Average Daily Flux from Unenhanced Control: 2.62 ± 0.43
[1]; 0.06% GMO vs 0% GMO, Skin 5A
  E = Enhancement Factor = Average Daily Flux from Enhanced Formulation/Average Daily Flux from Unenhanced Control: 1.81
[1]; 0.06% GMO vs 0% GMO, Skin 5B
  E = Enhancement Factor = Average Daily Flux from Enhanced Formulation/Average Daily Flux from Unenhanced Control: 4.30
[1]; 0.06% GMO vs 0% GMO, Skin 5C
  E = Enhancement Factor = Average Daily Flux from Enhanced Formulation/Average Daily Flux from Unenhanced Control: 1.74
[1]; 0.12% GMO vs 0% GMO, All Skins
  E = Enhancement Factor = Average Daily Flux from Enhanced Formulation/Average Daily Flux from Unenhanced Control: 3.18 ± .36
[1]; 0.12% GMO vs 0% GMO, Skin 5A
  E = Enhancement Factor = Average Daily Flux from Enhanced Formulation/Average Daily Flux from Unenhanced Control: 2.62
[1]; 0.12% GMO vs 0% GMO, Skin 5B
  E = Enhancement Factor = Average Daily Flux from Enhanced Formulation/Average Daily Flux from Unenhanced Control: 4.89
[1]; 0.12% GMO vs 0% GMO, Skin 5C
  E = Enhancement Factor = Average Daily Flux from Enhanced Formulation/Average Daily Flux from Unenhanced Control: 2.03
[2]
  total serum cholesterol: decreased
[3]; All Skins, Mean ± SEM
  Average Daily Flux of CP-336,156 over 7 Days: 8.6 ± 1.2 µg/cm²/day
[3]; Skin 1B, 4 diffusion cells
  Average Daily Flux of CP-336,156 over 7 Days: 5.7 ± 0.8 µg/cm²/day
[3]; Skin 1C, 8 diffusion cells
  Average Daily Flux of CP-336,156 over 7 Days: 9.2 ± 2.9 µg/cm²/day
[3]; Skin 1D, 4 diffusion cells
  Average Daily Flux of CP-336,156 over 7 Days: 13.4 ± 7.8 µg/cm²/day
[3]; Skin 1E, 4 diffusion cells
  Average Daily Flux of CP-336,156 over 7 Days: 10.2 ± 3.4 µg/cm²/day
[3]; Skin 1F, 4 diffusion cells
  Average Daily Flux of CP-336,156 over 7 Days: 5.1 ± 1.1 µg/cm²/day
[3]; Skin 1G, 4 diffusion cells
  Average Daily Flux of CP-336,156 over 7 Days: 11.4 ± 2.4 µg/cm²/day
[3]; Skin IA, 7 diffusion cells
  Average Daily Flux of CP-336,156 over 7 Days: 5.5 ± 3.4 µg/cm²/day
[3]; All Skins Mean ± SEM
  Cumulative Permeation of CP-336,156 over 24 Hours, Enhanced 1.5% w/w NaLG: 1.42 ± 1.05 μg/cm^2/24 h
  Cumulative Permeation of CP-336,156 over 24 Hours, Unenhanced: 0.99 ± 0.85 μg/cm^2/24 h
  Enhancement Factor Q24 enhanced/Q24 unenhanced: 2.2 and 2.21 ± 0.51
[3]; Skin 2A, 5 cells
  Cumulative Permeation of CP-336,156 over 24 Hours, Enhanced 1.5% w/w NaLG: 0.30 ± 0.12 μg/cm^2/24 h
  Cumulative Permeation of CP-336,156 over 24 Hours, Unenhanced: 0.13 ± 0.09 μg/cm^2/24 h
[3]; [8]
  Cumulative Permeation of CP-336,156 over 24 Hours, Enhanced 1.5% w/w NaLG: 3.51 ± 0.93 μg/cm^2/24 h
  Cumulative Permeation of CP-336,156 over 24 Hours, Unenhanced: 2.70 ± 1.08 μg/cm^2/24 h
[3]; [9]
  Cumulative Permeation of CP-336,156 over 24 Hours, Enhanced 1.5% w/w NaLG: 0.46 ± 0.16 μg/cm^2/24 h
  Cumulative Permeation of CP-336,156 over 24 Hours, Unenhanced: 0.15 ± 0.09 μg/cm^2/24 h
[3]; Skin 2A
  Enhancement Factor Q24 enhanced/Q24 unenhanced: 2.28
[3]; second skin source (name not given)
  Enhancement Factor Q24 enhanced/Q24 unenhanced: 1.30
[3]; third skin source (name not given)
  Enhancement Factor Q24 enhanced/Q24 unenhanced: 3.06
[4]
  bone loss: prevent bone loss
[5]
  bone loss: prevent bone loss
[6]
  uterine-stimulating effects: without the uterine-stimulating effects
[7]
  effect on prostate: did not affect prostate
